What was measured:
Experiment in all cases: Test C postemergence
Format in all cases: in vivo
[1] = system: windgrass (Apera spica-venti)
Method in brief: (§1)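 Compounds in non-phytotoxic solvent with surfactant applied preemergence to planted seeds and postemergence to plants at 1- to 4-leaf stage (2–18 cm). Kept in greenhouse 12–14 days, then visually rated against controls on a 0 (no effect) to 100 (complete control) scale.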

wild oat (Avena fatua) = system: wild oat (Avena fatua)
Method in brief: as §1

[2] = system: green foxtail (Setaria viridis)
Method in brief: as §1

[3] = system: canary grass (Phalaris minor)
Method in brief: as §1

[4] = system: blackgrass (Alopecurus myosuroides)
Method in brief: as §1

[5] = system: Italian ryegrass (Lolium multiflorum)
Method in brief: as §1

[6] = system: downy brome (Bromus tectorum)
Method in brief: as §1

[7] = system: wheat (Triticum aestivum)
Method in brief: as §1

[8] = Rate 125 g/ha, scale 0 to 100, 0 no effect, 100 complete control
[9] = Rate 250 g/ha, scale 0 to 100 (0 no effect, 100 complete control)
[10] = Rate 500 g/ha, scale 0 to 100 (0 no effect, 100 complete control)

CC1(c2ccn(C3OCN(c4cccc(OC(F)(F)F)c4)C3=O)n2)CC1 (centres unmarked) [Compound 69]
Plant response rating, Windgrass ([1]; Rate 62 g/ha, scale 0 to 100): 0
Plant response rating, Windgrass [1, 8]: 0
Plant response rating, Windgrass [1, 9]: 0
Plant response rating, Windgrass [1, 10]: 20
Plant response rating, Wild Oat (wild oat (Avena fatua); Rate 62 g/ha, scale 0 to 100): 0
Plant response rating, Wild Oat (wild oat (Avena fatua); [8]): 0
Plant response rating, Wild Oat (wild oat (Avena fatua); [9]): 0
Plant response rating, Wild Oat (wild oat (Avena fatua); [10]): 20
Plant response rating, Foxtail, Green ([2]; Rate 62 g/ha, scale 0 to 100): 0
Plant response rating, Foxtail, Green [2, 8]: 30
Plant response rating, Foxtail, Green [2, 9]: 30
Plant response rating, Foxtail, Green [2, 10]: 60
Plant response rating, Canarygrass ([3]; Rate 62 g/ha, scale 0 to 100): 0
Plant response rating, Canarygrass [3, 8]: 0
Plant response rating, Canarygrass [3, 9]: 0
Plant response rating, Canarygrass [3, 10]: 0
Plant response rating, Blackgrass ([4]; Rate 62 g/ha, scale 0 to 100): 0
Plant response rating, Blackgrass [4, 8]: 0
Plant response rating, Blackgrass [4, 9]: 0
Plant response rating, Blackgrass [4, 10]: 20
Plant response rating, Ryegrass ([5]; Rate 62 g/ha, scale 0 to 100): 0
Plant response rating, Ryegrass [5, 8]: 0
Plant response rating, Ryegrass [5, 9]: 0
Plant response rating, Ryegrass [5, 10]: 30
Plant response rating, Downy Brome ([6]; Rate 62 g/ha, scale 0 to 100): 0
Plant response rating, Downy Brome [6, 8]: 0
Plant response rating, Downy Brome [6, 9]: 0
Plant response rating, Downy Brome [6, 10]: 0
Plant response rating, Wheat ([7]; Rate 62 g/ha, scale 0 to 100): 0
Plant response rating, Wheat [7, 8]: 0
Plant response rating, Wheat [7, 9]: 0
Plant response rating, Wheat [7, 10]: 0

Source: US7138361B2, “Herbicidal heterocycles” (E. I. du Pont de Nemours and Company, priority 2000, dated 2006)
